Results taken from patent publication US9938322B2, “β-hairpin peptidomimetics” (priority 2013, dated 2018).
Where a SMILES comes first, the peptide text is derived from it. [ ]: non-standard residue; d: D form. Cha = N[C@@H](CC1CCCCC1)C(=O)O; Chg = N[C@H](C(=O)O)C1CCCCC1; Tle = CC(C)(C)[C@H](N)C(=O)O; dDab = NCC[C@@H](N)C(=O)O; Orn = NCCC[C@H](N)C(=O)O; Dab = NCC[C@H](N)C(=O)O; Nva = CCC[C@H](N)C(=O)O; Dap = NC[C@H](N)C(=O)O

Test system: human red blood cells (hRBC)
Assay: Hemolysis of human red blood cells
Type: cell-based
Details: red cells of human, 1 h, 100
Method in brief: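 Washed fresh human erythrocytes (20% v/v, about 0.9×10^9 cells/ml final) incubated with peptide at 100 μg/ml for 1 h at 37° C with shaking. Supernatant OD540 read; hemolysis expressed relative to 2.5% Triton X-100 (100%) and PBS with 0.001% acetic acid (0%).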

Row | Structure (SMILES) | Hemolysis at 100 μg/ml [%]
1 | CCC[C@@H]1NC(=O)[C@@H]2CCCN2C(=O)[C@H]2CCCN2C(=O)[C@H](CO)NC(=O)[C@H](CO)NC(=O)[C@H](C(C)(C)C)NC(=O)[C@H](CCN)NC(=O)[C@H](Cc2c[nH]c3ccccc23)NC(=O)[C@H](CCN)NC(=O)[C@@H](CCN)NC(=O)[C@H](CCCN)NC(=O)[C@H](CCN)NC(=O)[C@H](CC2CCCCC2)NC(=O)[C@H](CO)NC1=O [compound 144] (cyclo([Nva]S[Cha][Dab][Orn][dDab][Dab]W[Dab][Tle]SS[dP]P)) | 7
2 | CC(C)C[C@@H]1NC(=O)[C@@H]2CCCN2C(=O)[C@H]2CCCN2C(=O)[C@H](CO)NC(=O)[C@H](C)NC(=O)[C@H](C(C)(C)C)NC(=O)[C@H](CCN)NC(=O)[C@H](Cc2c[nH]c3ccccc23)NC(=O)[C@H](CCN)NC(=O)[C@@H](CCN)NC(=O)[C@H](CCCN)NC(=O)[C@H](CCN)NC(=O)[C@H](Cc2ccc(O)cc2)NC(=O)[C@H](CN)NC1=O [compound 145] (cyclo(L[Dap]Y[Dab][Orn][dDab][Dab]W[Dab][Tle]AS[dP]P)) | 0
3 | CC[C@H](C)[C@@H]1NC(=O)[C@@H]2CCCN2C(=O)[C@H]2CCCN2C(=O)[C@H](CO)NC(=O)[C@H](C)NC(=O)[C@H](C(C)(C)C)NC(=O)[C@H](CCN)NC(=O)[C@H](Cc2c[nH]c3ccccc23)NC(=O)[C@H](CCN)NC(=O)[C@@H](CCN)NC(=O)[C@H](CCCN)NC(=O)[C@H](CCN)NC(=O)[C@H](Cc2ccc(O)cc2)NC(=O)[C@H](CN)NC1=O [compound 146] (cyclo(I[Dap]Y[Dab][Orn][dDab][Dab]W[Dab][Tle]AS[dP]P)) | 0
4 | CC(C)C[C@@H]1NC(=O)[C@@H]2CCCN2C(=O)[C@H]2CCCN2C(=O)[C@H](CO)NC(=O)[C@H](C)NC(=O)[C@H](C(C)(C)C)NC(=O)[C@H](CCN)NC(=O)[C@H](Cc2c[nH]c3ccccc23)NC(=O)[C@H](CCN)NC(=O)[C@@H](CCN)NC(=O)[C@H](CCCN)NC(=O)[C@H](CCN)NC(=O)[C@H](Cc2c[nH]c3ccccc23)NC(=O)[C@H](CN)NC1=O [compound 147] (cyclo(L[Dap]W[Dab][Orn][dDab][Dab]W[Dab][Tle]AS[dP]P)) | 0
5 | CC(C)C[C@@H]1NC(=O)[C@@H]2CCCN2C(=O)[C@H]2CCCN2C(=O)[C@H](CO)NC(=O)[C@H]([C@@H](C)O)NC(=O)[C@H](C(C)(C)C)NC(=O)[C@H](CCN)NC(=O)[C@H](Cc2c[nH]c3ccccc23)NC(=O)[C@H](CCN)NC(=O)[C@@H](CCN)NC(=O)[C@H](CCCN)NC(=O)[C@H](CCN)NC(=O)[C@H](Cc2ccc(O)cc2)NC(=O)[C@H](CCN)NC1=O [compound 148] (cyclo(L[Dab]Y[Dab][Orn][dDab][Dab]W[Dab][Tle]TS[dP]P)) | 1
6 | CC(C)C[C@@H]1NC(=O)[C@@H]2CCCN2C(=O)[C@H]2CCCN2C(=O)[C@H]([C@@H](C)O)NC(=O)[C@H](CO)NC(=O)[C@H](C(C)(C)C)NC(=O)[C@H](CCN)NC(=O)[C@H](Cc2c[nH]c3ccccc23)NC(=O)[C@H](CCN)NC(=O)[C@@H](CCN)NC(=O)[C@H](CCN)NC(=O)[C@H](CCN)NC(=O)[C@H](Cc2ccc(O)cc2)NC(=O)[C@H](CN)NC1=O [compound 149] (cyclo(L[Dap]Y[Dab][Dab][dDab][Dab]W[Dab][Tle]ST[dP]P)) | 4
7 | CCC[C@@H]1NC(=O)[C@@H]2CCCN2C(=O)[C@H]2CCCN2C(=O)[C@H](CO)NC(=O)[C@H](C)NC(=O)[C@H](C2CCCCC2)NC(=O)[C@H](CCN)NC(=O)[C@H](Cc2c[nH]c3ccccc23)NC(=O)[C@H](CCN)NC(=O)[C@@H](CCN)NC(=O)[C@H](CCCN)NC(=O)[C@H](CCN)NC(=O)[C@H](CC2CCCCC2)NC(=O)[C@H](C)NC1=O [compound 150] (cyclo([Nva]A[Cha][Dab][Orn][dDab][Dab]W[Dab][Chg]AS[dP]P)) | 4
